Results on one sequence are retold here after doi:10.1101/2022.10.18.512764v1 (bioRxiv, 2022).

For data set [1], the system named is HeLa. Description: Quantification of TMR-TAT puncta by 100x fluorescence microscopy. Type of data set: cell-based. Conditions: TMR-TAT 5 µM, 1 h, 100x deconvoluted images, individual puncta.
The test system of data set [2] is HeLa. In words: TMR-TAT endocytic uptake measured by flow cytometry. Type of data set: cell-based.

As to RKKQRRRG [TMR-TAT], the “Average pixel intensity of puncta, HUP versus MUP” value in the data set with HeLa [1] is reported as “not statistically different”. In the data set on HeLa [2] (HeLa cultured 2, 10, 25 days, TMR-TAT 5 µM, 1 h, Fig S1), the “Effect of cell aging on endocytosis” value is “no effect”. The “Difference in uptake between growth in LG-DMEM and HG-DMEM, incubation in L-15” value with HeLa [2] (HeLa grown 24 h, TMR-TAT 5 µM 1 h in L-15, Fig 3B) is “not detectable”. Further, the “Rate of TMR-TAT uptake at 25°C as percentage of that at 37°C” value in the data set with HeLa [2] (HeLa, TMR-TAT 5 µM in L-15, 5-60 min) is recorded as “approximately 50%”. For the same sequence, in the data set with HeLa [2] (HeLa, TMR-TAT 5 µM in L-15, 60 min incubation time point, Fig 4), the “Uptake less at 25°C than at 37°C, fold” value came to 1.9 fold. In addition, the “Effect of removing glucose from DMEM during incubation on uptake” value in the data set on HeLa [2] (HeLa, TMR-TAT 5 µM, 1 h, DMEM 0 vs 25 mM glucose, Fig 3C) is recorded as “reduction”. Moreover, the “Effect of adding glucose to L15 on uptake” value with HeLa [2] (HeLa, TMR-TAT 5 µM, 1 h, L15 25 vs 0 mM glucose (5 mM galactose), Fig 3C) was “increased”. In the data set on HeLa [2] (HeLa, TMR-TAT 5 µM, 1 h, possibly because of unwashed BSA, Fig S4), the “Effect of 0 wash on uptake” value was “uptake is inhibited”. For the same sequence, the “Difference between MUP and HUP, fold MFI change” value with HeLa [2] (HeLa, TMR-TAT 5 µM, 1 h, discussion) turned out to be 2.3 fold. Besides, the “Fold increase in uptake, HUP compared to LUP” value with HeLa [2] (HeLa, TMR-TAT 5 µM, 1 h, using a median of 0.8 × 10^3 for untreated cells) is reported as 13 fold. In addition, the “Endocytosis higher in DMEM (serum free) than in L-15, factor” value with HeLa [2] (HeLa, TMR-TAT 5 µM, 1 h incubation, Fig 3A) is given as 1.4 fold.
